Data from US4115453A (Miles Laboratories, Inc., priority 1977, dated 1978).

Assays:
[1] = test system: human platelet aggregation; conditions: result in words; cited from earlier work
blood platelets = conditions: in vitro; cited from earlier work
[2] = test system: smooth muscle of the vas deferens; conditions: cited from earlier work
tracheal smooth muscle = conditions: in vitro; cited from earlier work
[3] = test system: female reproductive system; conditions: cited from earlier work
femoral blood flow = experiment: Test C: Increase in Canidae Femoral Blood Flow; assay type: in vivo; conditions: anesthetized dog, intraarterial, 0.001 to 10 mcg
Protocol: The peripheral vasodilator or constrictor effects of test compounds were determined in mongrel dogs of either sex, weighing between 10 and 20 kg anesthestized intravenously with 35 mg/kg of sodium pentobarbital. An external iliac artery was dissected immediately above the femoral arch for a length of approximately 5 cm and a previously calibrated, non-connulating electromagnetic flowmeter sensor with a lumen between 2.5 and 3.5 mm was placed snugly around the vessel. Cannulas were placed in a branch of the artery arising distally to the location of the flowmeter sensor for intraarterial drug administrations, in the contralateral femoral artery for systemic blood pressure recordings and in the trachea for artificial respiration with room air. Femoral blood flow and systemic blood pressure were continuously recorded with an electromagnetic flowmeter and pressure tranducer, respectively.
After an adequate control period, test compounds were injected intraarterially at one log-spaced doses ranging from 0.001 to 10 mcg., in a volume of 0.5 ml and at 5 to 10 minute intervals. Maximum changes in bloodflow, as well as any variations in blood pressure, were tabulated for each dose in absolute values (ml/min. and mmHg). The calculations were made taking as control values those existing immediately before administration of each dose. The direction of the observed change (plus for increase and minus for decrease) was also noted. The dose changing bloodflow by 100 ml/min (ED100 ml/min) was calculated graphically and was used for scoring activity as follows: […]

blood pressure = experiment: Test D: Decrease in Normal Feline Blood Pressure and Heart Rate (anesthetized cat); assay type: in vivo; conditions: intravenous, 0.01 to 10.0 mcg/kg, judged only on hypotension
Protocol: The acute effects of test compounds on blood pressure and heart rate were determined in cats of either sex anesthetized with a mixture of pentobarbital sodium (35 mg/kg, i.v.) and barbital sodium (100 mg/kg, i.v.). Cannulas were placed in the trachea to allow adequate spontaneous ventilation, in a femoral artery for blood pressure recording with a strain gage transducer, and in a saphenous vein for drug administration. Heart rate was recorded by means of a cardiotachometer driven by the R wave of the electrocardiogram. After a period of 10 minutes of stable recordings of blood pressure and heart rate, the test compound was administered intravenously at doses increasing from 0.01 to 10.0 mcg/kg, spaced one log and injected at 10 minutes intervals. All doses were injected in a volume of 0.1 ml/kg. Modifications of blood pressure and heart rate induced by the test compound were expressed both in absolute units (mmHg and beats/minutes) and as percent of values recorded immediately before administration of each dose. Biphasic responses were tabulated in the order in which they occur. The direction of the observed changes was also noted (+ for increases and - for decreases).
Activity of compounds in this test was judged only on the basis of the degree of hypotension observed. Thus, the ED50 mmHg (dose decreasing blood pressure by 50 mmHg) was calculated graphically and the compound scored according to the following scale: […]

[4] = test system: human platelet aggregation; experiment: Test A: Inhibition of Human Platelet Aggregation; assay type: cell-based; conditions: human platelet rich plasma, in vitro, collagen-induced, 37° C, 15 minutes
Protocol: The ability of test compounds to inhibit platelet aggreagation was determined by a modification of the turbidometric technique of Born (Nature, 194: 927 [1962]). Blood was collected from human volunteer who had not ingested aspirin or aspirin-containing products within the preceding two weeks in heparinized containers and was allowed to settle for one (1) hour. The platelet rich plasma (prp) supernates were collected and cooled. Siliconized glassware was used throughout.
In a representative assay 1.9 ml of PRP and 0.2 ml of test compound at the appropriate concentrations (0.001 to 100 mcgm), or 0.2 ml of distilled water (control procedure) were placed in sample cuvettes. The cuvettes were placed in a 37° C incubation block for 15 minutes, and then in a spectrophotometer linked to a strip chart recorder. After 30-60 seconds, 0.2 ml of a solution, prepared by diluting a calf-skin collagen solution 1:9 with Tyrodes' Solution, was added to each cuvette. Platelet aggregation was evidenced by a decrease in optical density.
An ED50 value was then determined graphically.

gastric secretion = experiment: Test B: Inhibition of Rodent Gastric Secretion (pylorus-ligated rat); assay type: in vivo; conditions: subcutaneous, 2 x 1.5 mg/kg (total 3.0 mg/kg), 4 hours after pyloric ligation
Protocol: A procedure based on that described by Lipmann (J. Pharm. Pharmacol., 21:335 [ 1968]) was used to assess the influence of test compounds on gastric secretion. Rats of one sex weighing 150 to 200 g were randomly divided into groups of six animals each and fasted for 48 hours previously to the experiments, water being available adlibitum. The animals were anesthetized with ether, the abdomen was opened through a midline incision and the pylorus was ligated. Test compounds were diluted from stock solution so as to administer a dose of 1.5 mg/kg in a volume equivalent to 1 ml/kg. Subcutaneous injections were applied immediately after surgery and again 2 hours later, so that a total dose of 3.0 mg/kg was administered. Dilutions were made with phosphate buffer (pH 7.38) as recommended by Lee et al. (Prostaglandins 3:29 [ 1973]), in order to insure adequate stability of drugs at the subcutaneous depot. Each compound was tested in one group of rats; an additional control group received only the vehicle.
Four hours after pyloric ligation the animals were killed with ether, the cardias ligated and the stomachs removed. The volume of gastric secretion was measured and the contents centrifuged at 5000 rpm for 10 minutes. Total acid in the supernatant was titrated against a 0.1 N sodium hydroxide solution and the amount expressed in mEq.
Volume and total acid values of the treated group were compared with those of the controls by the "T" test. Antisecretory activity was scored according to the following scale: […]

Row | Compound | effect on tracheal smooth muscle (tracheal smooth muscle) | Activity Value Test C (ED100 ml/min, dose changing bloodflow by 100 ml/min) (femoral blood flow) | Activity Value Test D (ED50 mmHg, dose decreasing blood pressure by 50 mmHg) (blood pressure) | Activity Value Test A (ED50, inhibition of platelet aggregation) [4] | Activity Value Test B (% decrease in acidity) (gastric secretion) | further results
1 | CCCCC[C@H](O)/C=C/[C@H]1[C@H](O)CC(=O)[C@@H]1CCCCCCC(=O)O [PGE1, prostaglandin E1] | relax | – | – | – | – | inhibition of platelet aggregation by natural prostaglandins [1]: displays a similar activity; thrombogenesis (blood platelets): inhibits thrombogenesis in vitro; contraction of the smooth muscle of the vas deferens [2]: contracts the smooth muscle of the vas deferens
2 | CCCCC[C@H](O)/C=C/[C@H]1[C@H](O)CC(=O)[C@@H]1C/C=C\CCCC(=O)O [PGE2] | relax | – | – | – | – | –
3 | CCCCC[C@H](O)/C=C/[C@@H]1[C@@H](C/C=C\CCCC(=O)O)[C@@H](O)C[C@H]1O [PGF2α] | contracts the smooth muscle | – | – | – | – | spontaneous abortions ([3]; early pregnancy): induces spontaneous abortions in early pregnancy; effect on fertility / gestation ([3]; female reproductive system): contragestational effects
4 | COC(=O)CCCCCC[C@H]1C(=O)C[C@@H](O)[C@@H]1/C=C/[C@H](O)CCCCC1CCCC2CCCCC21 (some centres unmarked) [TR-4166] | – | 0 (>10.0) | 0 (>10.0) | 1 (>1.0) | 0 (<26) | –
5 | COC(=O)CCCCCC[C@H]1C(=O)C[C@@H](O)[C@@H]1/C=C/[C@@H](O)CCCCC1CCCC2CCCCC21 (some centres unmarked) [TR-4172] | – | 0 (>10.0) | 0 (>10.0) | 1 (>1.0) | 0 (<26) | –
6 | dl-7-{5-oxo-2R[3R-hydroxy-2-(bicyclo[3.2.0]hept-3-yl)-1E-propenyl]cyclopent- [TR-4101] | – | 3 (0.01 - 0.1) | 1 (1.01 - 10.0) | 1 (>1.0) | 1 (26-50, not significant) | –
